Where “and” joins values, the source holds several entries; their conditions need not be identical. Identical values can stand only once.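 All cell lines were grown in 96-well plates and treated with compound for 48 hours. At the GI50, growth is halved. TGI marks complete inhibition of growth.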
Tests used:
Assay in all cases: NCI-60 cell line screen, 48 h
786-0 renal = system: 786-0 renal
COLO 205 colon = system: COLO 205 colon
HCT-116 colon = system: HCT-116 colon
KM12 colon = system: KM12 colon
LOX IMVI melanoma = system: LOX IMVI melanoma
SK-MEL-5 melanoma = system: SK-MEL-5 melanoma
SK-OV-3 ovarian = system: SK-OV-3 ovarian
SNB-75 CNS = system: SNB-75 CNS
SR leukemia = system: SR leukemia
UACC-62 melanoma = system: UACC-62 melanoma

Compound	GI50 (786-0 renal) [µM]	TGI (786-0 renal)	GI50 (COLO 205 colon) [µM]	TGI (COLO 205 colon)	GI50 (HCT-116 colon) [µM]	TGI (KM12 colon) [µM]	GI50 (LOX IMVI melanoma) [µM]	TGI (LOX IMVI melanoma)	GI50 (SK-MEL-5 melanoma) [µM]	GI50 (SK-OV-3 ovarian) [µM]	TGI (SNB-75 CNS) [µM]	TGI (SR leukemia) [µM]	GI50 (UACC-62 melanoma) [µM]	TGI (UACC-62 melanoma)	TGI (HCT-116 colon) [µM]	TGI (SK-MEL-5 melanoma) [µM]	TGI (SK-OV-3 ovarian) [µM]	GI50 (KM12 colon) [µM]	GI50 (SNB-75 CNS) [µM]	GI50 (SR leukemia) [µM]
COc1cc2c(c(OC)c1OC)-c1ccc(OC)c(=O)cc1[C@@H](NC(=O)c1ccccc1)CC2	0.0114	30 µM and 47.5 µM	0.00399	0.0153 µM and 0.0138 µM	< 0.003	1.14	0.0105	30 µM and 53.4 µM	0.00569	< 0.003	33.8	> 100	< 0.003	30 µM and 59.7 µM						
Cn1c(=O)c(C(c2ccc([N+](=O)[O-])cc2)c2c(O)c3ccccc3n(C)c2=O)cc2ccccc21 (stereo unspecified)		> 100 µM		> 100 µM		> 100		> 100 µM			85.1	> 100		42.3 µM	> 100	> 100	> 100			
COc1nc2ccccc2cc1-c1nc2c(cnn2-c2ccc(Br)cc2)c(=O)[nH]1	0.0403	8.6 µM	0.0545		0.0196	> 50	0.0276	> 50 µM	0.0293	0.0638	1.46	5.41	0.0234	> 50 µM	> 50		24.5	0.0226	0.0161	0.0116
CCCCC(O)(c1ccc(Cl)cc1)C(CN1CCOCC1)c1ccc(Cl)cc1 (stereo unspecified)	13.6	27.5 µM	10.8	25.5 µM	5.23	29.1	14.4	28.3 µM	13.8	15.2	44.7	32.3	12.4	28.7 µM	20.3	28.7	47.1	12.2	16.8	12.5
C=C1C(=O)O[C@@H]2/C=C(\C)CC/C=C(/COC(C)=O)C[C@@H](OC(C)=O)[C@@H]12		17.7 µM		14.1 µM		34.3		13.1 µM			> 100	7.39		26.4 µM	14.6	25.7	> 100			
COC(=O)C1=CNC=C(C(=O)OC)C1C1=CC(=O)C(C)=CC1=O	4.3	11.5 µM	22.9	55.1 µM	1.94	31.8	14	28.6 µM	20.7	17.6	42	43.5	13.6	26.5 µM	3.79	43.7	37.3	17.1	16	9.37
CCCCCCCC/C=C/CCCCCCCC(=O)OC[C@H]1O[C@@H](n2ccc(N)nc2=O)C(F)(F)[C@@H]1O	< 0.0139	2.56 µM	0.131	> 37.9 µM	< 0.018	> 100	0.0418	> 35.9 µM	0.0327	0.272	> 66.1	11.1	0.0331	> 100 µM	> 100	> 100	> 100	> 100	0.36	< 0.0134
COc1cc(-c2ccc3c(c2)NC(=O)/C3=C\c2ccc[nH]2)ccc1O	0.0385	> 21.1 µM	0.467	> 50 µM	0.0228	> 50	0.0353	> 50 µM	0.0368	0.0341	> 50	> 30.5	0.1	> 50 µM	> 50	1.69	> 50	0.0214	0.0201	0.014
N#CC(NNC(=O)Cc1ccccc1)c1c(O)ccc2ccccc12 (stereo unspecified)		39.2 µM		> 80.5 µM		> 72.4		14.3 µM			45	38.3		12 µM	50.9	15.7	31.3			
NCC1Nc2ccccc2[C@@H](O)C1O (stereo partly specified)		> 100 µM		> 100 µM		> 100		> 100 µM			> 100	> 100		> 100 µM	> 100	> 100	> 100			
CN1C/C=C\CCOc2cccc(c2)-c2ccnc(n2)Nc2cccc(c2)C1	0.0568	0.802 µM	0.024	0.0762 µM	0.0298	0.506	0.0343	1.06 µM	0.0502	0.209	0.169	0.116	0.0259	0.148 µM	0.677	0.205	2.16	0.0377	0.0545	0.0196
CN(C)C(=O)c1cc2cnc(Nc3ccc(-c4csc5c(=S)cc(N6CCOCC6)oc45)cc3)nc2n1C1CCCC1	0.63	> 50 µM	0.214		0.242	> 50	0.355	2.54 µM	0.715	2.28	2.04	> 50	0.234	1.72 µM	> 50	2.43	> 50	0.18	0.314	0.145
CCOC(=O)[C@@H](N)CCC(=O)N[C@@H](CSCc1ccccc1)C(=O)N[C@@H](C(=O)OCC)c1ccccc1	17.7	33.7 µM	17.4	34.2 µM	18.3	33.8	16.7	32.1 µM	14.2	16.6	26.4	33.2	17.1	33 µM	36.8	27.5	31.5	18.1	13	9.97
NS(=O)(=O)c1ccc(N=Nc2c(O)[nH]c3ccc(-c4cnco4)cc23)cc1	> 25	> 25 µM	> 25	> 25 µM	6.97	> 23.9	22.8	> 25 µM	> 25	> 25	> 25	> 25	> 25	> 25 µM	> 25	> 25	> 25	6.86	10.1	4.99

Reference: PubChem BioAssay (NCI)
